Measured values: patent US8158657B2, “Heterocycles substituted pyridine derivatives and antifungal agent containing thereof” (Eisai R&D Management Co., Ltd., priority 2005, dated 2012)
Values after ≈ are worked out from the molar mass of the structure shown.

Key:
[1] = system: C. albicans CAF2-1 strain; assay: Anti-Candida activity, MIC measurement; assay type: cell-based; conditions: CAF21STRAIN, C. albicans CAF2-1, RPMI1640, 42-48 hours at 35° C., visual inspection, read-out: Anti-Candida Activity (minimum inhibitory concentration, MIC)
Experimental: (§1) For the C. albicans CAF2-1 strain, a fungal suspension from a standing culture for 48 hours at 30° C. in a Sabouraud dextrose liquid culture medium (SDB) was diluted with RPMI1640 medium to adjust a fungal suspension of 1.2×10^3 cells/mL. For the A. fumigatus Tsukuba strain, −80° C. stored strain was diluted with RPMI1640 medium to adjust to a fungal suspension of 4.5×10^3 cells/mL.
(§2) Using a U-bottomed 96 well plate, 8 samples/plate (A to H) of sample dilution solutions were prepared. On the 2nd to 12th rows were dispensed 10 μL of dimethyl sulfoxide solution. Weighted sample was dissolved in dimethyl sulfoxide to prepare a 2.5 mg/mL solution, 20 μL of this solution was added to the first row of the prepared plate, and 12 steps of two-fold step dilutions (10 μL of solution+10 μL of dimethyl sulfoxide solution) were performed on the plate. This sample dilution solution was dispensed in the amount of 1 μL to a flat-bottomed 96 well plate for MIC measurement to prepare a sample dilution plate.
(§3) The fungal suspension prepared in (1) was used in the amount of 99 μL/well to inoculate the flat-bottomed 96 well plate containing 1 μL/well of the test compound dilution prepared in (2), and a standing culture was carried out aerobically for 42-48 hours at 35° C.

[2] = system: A. fumigatus Tsukuba strain; assay: Anti-Aspergillus activity, MIC measurement; assay type: cell-based; conditions: RPMI1640, 42-48 hours at 35° C., visual inspection, read-out: Anti-Aspergillus Activity (minimum inhibitory concentration, MIC)
Experimental: as §1, §2, §3

Row | Structure (SMILES) | MIC [1] [µg/mL] | MIC [2] [µg/mL]
1 | Nc1ncccc1-c1cc(Cc2ccc(OCc3cccc(F)c3)cc2)no1 [Example 6, 3-(3-(4-(3-Fluoro-benzyloxy)-benzyl)-isoxazol-5-yl)-pyridin-2-ylamine] | 0.39 (≈ 1.04 µM) | 0.39 (≈ 1.04 µM)
2 | C#CCOCc1ccc(Cn2cc(-c3cccnc3N)cn2)cc1 [Example 194, 3-(1-(4-Prop-2-ynyloxymethyl-benzyl)-1H-pyrazol-4-yl)-pyridin-2-ylamine] | 1.56 (≈ 4.9 µM) | 3.13 (≈ 9.83 µM)
3 | Nc1ccc(-c2cc(Cc3ccc(CSc4ccccc4)cc3)no2)c(N)n1 [Example 217, 3-(3-(4-Phenylsulfanylmethyl-benzyl)-isoxazol-5-yl)-pyridin-2,6-diamine] | 0.1 (≈ 0.257 µM) | 0.2 (≈ 0.515 µM)
4 | Nc1ncccc1-c1cc(Cc2ccc(Oc3ccccn3)cc2)no1 [Example 209, 3-(3-(4-(Pyridin-2-yloxy)-benzyl)-isoxazol-5-yl)-pyridin-2-ylamine] | 0.2 (≈ 0.581 µM) | 0.39 (≈ 1.13 µM)
5 | Cc1cccc(OCc2ccc(Cc3cc(-c4cccnc4N)on3)cc2)n1 [Example 3, 3-(3-(4-(6-Methyl-pyridin-2-yloxymethyl)-benzyl)-isoxazol-5-yl)-pyridin-2-ylamine] | 0.1 (≈ 0.269 µM) | 0.78 (≈ 2.09 µM)
6 | Nc1ccc(-c2cc(Cc3ccc(CCC4CCCO4)cc3)no2)c(N)n1 (stereo not drawn) [Example 143] | 0.39 (≈ 1.07 µM) | 0.78 (≈ 2.14 µM)
7 | CCCCc1ccc(Cc2cc(-c3ccc(N)nc3N)on2)cc1 [Example 130, 3-(3-(4-Butyl-benzyl)-isoxazol-5-yl)-pyridin-2,6-diamine] | 1.56 (≈ 4.84 µM) | 0.2 (≈ 0.62 µM)
8 | Nc1ccc(-c2cc(Cc3cccc(OCc4ccccn4)c3)no2)c(N)n1 [Example 118, 3-(3-(3-(Pyridin-2-ylmethoxy)-benzyl)-isoxazol-5-yl)-pyridin-2,6-diamine] | 0.78 (≈ 2.09 µM) | 3.13 (≈ 8.38 µM)
9 | Nc1ncccc1-c1cc(Cc2ccc(OCc3ccccn3)cc2F)no1 [Example 95, 3-(3-(2-Fluoro-4-(pyridin-2-ylmethoxy)-benzyl)-isoxazol-5-yl)-pyridin-2-ylamine] | 0.39 (≈ 1.04 µM) | 1.56 (≈ 4.14 µM)
10 | Nc1ccc(-c2cc(Cc3ccc(Oc4ccccc4)nc3)no2)cn1 [Example 181, 5-(3-(6-Phenoxy-pyridin-3-ylmethyl)-isoxazol-5-yl)-pyridin-2-ylamine] | 1.56 (≈ 4.53 µM) | 0.39 (≈ 1.13 µM)
11 | Cc1cccc(COc2ccc(Cc3cc(-c4cccnc4N)on3)cc2)n1 [Example 10, 3-(3-(4-(6-Methyl-pyridin-2-ylmethoxy)-benzyl)-isoxazol-5-yl)-pyridin-2-ylamine] | 0.39 (≈ 1.05 µM) | 0.78 (≈ 2.09 µM)
12 | Cc1ccc(COc2ccc(Cc3cc(-c4cccnc4N)on3)cc2)nc1 [Example 42, 3-(3-(4-(5-Methyl-pyridin-2-ylmethoxy)-benzyl)-isoxazol-5-yl)-pyridin-2-ylamine] | 0.78 (≈ 2.09 µM) | 1.56 (≈ 4.19 µM)
13 | Nc1ccc(-c2cc(Cc3ccc(CCc4ccccn4)cc3)no2)c(N)n1 [Example 159, 3-(3-(4-(2-Pyridin-2-yl-ethyl)-benzyl)-isoxazol-5-yl)-pyridin-2,6-diamine] | 0.78 (≈ 2.1 µM) | 3.13 (≈ 8.43 µM)
14 | CNc1ccc(-c2cc(Cc3ccc(OCc4ccccc4)nc3)no2)c(N)n1 [Example 224, 3-(3-(6-Benzyloxy-pyridin-3-ylmethyl)-isoxazol-5-yl)-N^6-methyl-pyridin-2,6-diamine] | 0.39 (≈ 1.01 µM) | 0.2 (≈ 0.516 µM)
15 | Nc1ncccc1-c1cc(Cc2ccc(OCc3cccnc3)cc2)no1 [Example 50, 3-(3-(4-(Pyridin-3-ylmethoxy)-benzyl)-isoxazol-5-yl)-pyridin-2-ylamine] | 0.78 (≈ 2.18 µM) | 1.56 (≈ 4.35 µM)
16 | Nc1ccc(-c2cc(Cc3ccc(OCc4ccccn4)cc3F)no2)c(N)n1 [Example 158, 3-(3-(2-Fluoro-4-(pyridin-2-ylmethoxy)-benzyl)-isoxazol-5-yl)-pyridin-2,6-diamine] | 1.56 (≈ 3.99 µM) | 3.13 (≈ 8 µM)
17 | Nc1ccc(-c2cc(Cc3ccc(OCc4ccccc4)cn3)no2)c(N)n1 [Example 127, 3-(3-(5-Benzyloxy-pyridin-2-ylmethyl)-isoxazol-5-yl)-pyridin-2,6-diamine] | 0.78 (≈ 2.09 µM) | 1.56 (≈ 4.18 µM)
18 | Nc1ccc(-c2cc(Cc3cccc(Oc4ccccc4)c3)no2)c(N)n1 [Example 123, 3-(3-(3-Phenoxy-benzyl)-isoxazol-5-yl)-pyridin-2,6-diamine] | 0.2 (≈ 0.558 µM) | 0.39 (≈ 1.09 µM)
19 | Nc1ccc(-c2cc(Cc3ccc(OCc4cccnc4)cc3)no2)c(N)n1 [Example 108, 3-(3-(4-(Pyridin-3-ylmethoxy)-benzyl)-isoxazol-5-yl)-pyridin-2,6-diamine] | 1.56 (≈ 4.18 µM) | 3.13 (≈ 8.38 µM)
20 | Nc1ccc(-c2cc(Cc3ccc(OCc4ccc(F)cn4)c(F)c3)no2)c(N)n1 [Example 157, 3-(3-(3-Fluoro-4-(5-fluoro-pyridin-2-ylmethoxy)-benzyl)-isoxazol-5-yl)pyridin-2,6-diamine] | 3.13 (≈ 7.65 µM) | 0.78 (≈ 1.91 µM)

Row | Structure (SMILES) | MIC [1] [µg/mL] | MIC [2] [µg/mL]
21 | Nc1ncccc1-c1cc(Cc2ccc(Oc3ccccc3F)nc2)no1 [Example 74, 3-(3-(6-(2-Fluoro-phenoxy)-pyridin-3-ylmethyl)-isoxazol-5-yl)-pyridin-2-ylamin] | 0.1 (≈ 0.276 µM) | 0.2 (≈ 0.552 µM)
22 | Nc1ncccc1-c1cc(Cc2ccc(OCc3ccc(F)c(F)c3)nc2)no1 [Example 89, 3-(3-(6-(3,4-Difluoro-benzyloxy)-pyridin-3-ylmethyl)-isoxazol-5-yl)-pyridin-2-ylamine] | 0.39 (≈ 0.989 µM) | 0.2 (≈ 0.507 µM)
23 | Nc1ncccc1-c1cc(Cc2ccc(OCc3ccccc3F)cc2)no1 [Example 5, 3-(3-(4-(2-Fluoro-benzyloxy)-benzyl)-isoxazol-5-yl)-pyridin-2-ylamine] | 0.39 (≈ 1.04 µM) | 0.39 (≈ 1.04 µM)
24 | Nc1ncccc1-c1cc(Cc2ccc(Cc3ccc(F)cc3)o2)no1 [Example 208, 3-(3-(5-(4-Fluoro-benzyl)-furan-2-ylmethyl)-isoxazol-5-yl)-pyridin-2-ylamine] | 6.25 (≈ 17.9 µM) | 0.78 (≈ 2.23 µM)
25 | Nc1ccc(-c2cc(Cc3ccc(Oc4ccccn4)cc3)no2)c(N)n1 [Example 222, 3-(3-(4-(Pyridin-2-yloxy)-benzyl)-isoxazol-5-yl)-pyridin-2,6-diamine] | 0.39 (≈ 1.09 µM) | 0.39 (≈ 1.09 µM)
26 | N#Cc1cccc(COc2ccc(Cc3cc(-c4ccc(N)nc4N)on3)cc2)c1 [Example 212, 3-(4-(5-(2,6-Diamino-pyridin-3-yl)-isoxazol-3-ylmethyl)-phenoxymethyl)benzonitrile] | 0.78 (≈ 1.96 µM) | 0.78 (≈ 1.96 µM)
27 | Cc1ccc(-c2cc(Cc3ccc(COc4ccccn4)cc3)no2)cn1 [Example 190, 2-Methyl-5-(3-(4-(pyridin-2-yloxymethyl)-benzyl)-isoxazol-5-yl)-pyridine] | 0.78 (≈ 2.18 µM) | 0.78 (≈ 2.18 µM)
28 | Nc1ccc(-c2cc(Cc3cccc(-c4ccccn4)c3)no2)c(N)n1 [Example 146, 3-(3-(3-Pyridin-2-yl-benzyl)-isoxazol-5-yl)-pyridin-2,6-diamine] | 6.25 (≈ 18.2 µM) | > 25
29 | Nc1ncccc1-c1cc(Cc2cccc(-c3ccccc3)c2)no1 [Example 85, 3-(3-Biphenyl-3-ylmethyl-isoxazol-5-yl)-pyridin-2-ylamine] | 1.56 (≈ 4.77 µM) | 3.13 (≈ 9.56 µM)
30 | Nc1ncccc1-c1cc(Cc2ccc(COc3ccc(F)cn3)cc2)no1 [Example 56] | 1.56 (≈ 4.14 µM) | > 25
31 | Nc1ncccc1-c1cc(Cc2ccc(OC3CCCC3)cc2)no1 [Example 78, 3-(3-(4-Cyclopentyloxy-benzyl)-isoxazol-5-yl)-pyridin-2-ylamine] | 0.78 (≈ 2.33 µM) | 1.56 (≈ 4.65 µM)
32 | Nc1ccc(-c2cc(Cc3cccc(OCC4CC4)c3)no2)c(N)n1 [Example 125, 3-(3-(3-Cyclopropylmethoxy-benzyl)-isoxazol-5-yl)-pyridin-2,6-diamine] | 0.1 (≈ 0.297 µM) | 0.39 (≈ 1.16 µM)
33 | Nc1ncccc1-n1cc(Cc2ccc(OCc3ccccc3)cc2)cn1 [Example 39, 3-(4-(4-Benzyloxy-benzyl)-pyrazol-1-yl)-pyridin-2-ylamine] | 3.13 (≈ 8.78 µM) | 3.13 (≈ 8.78 µM)
34 | Nc1ccc(-c2cnn(Cc3ccc(OCc4ccccn4)cc3)c2)c(N)n1 [Example 199] | 3.13 (≈ 8.4 µM) | 6.25 (≈ 16.8 µM)
35 | Nc1ccc(-c2cc(Cc3ccc(Oc4ccccc4)cn3)no2)c(N)n1 [Example 121, 3-(3-(5-Phenoxy-pyridin-2-ylmethyl)-isoxazol-5-yl)-pyridin-2,6-diamine] | 0.39 (≈ 1.09 µM) | 0.78 (≈ 2.17 µM)
36 | Nc1ccc(-c2cc(Cc3ccc(Cc4ccc(Cl)o4)cc3)no2)cn1 [Example 182, 5-(3-(4-(5-Chloro-furan-2-ylmethyl)-benzyl)-isoxazol-5-yl)-pyridin-2-ylamine] | > 25 | 0.2 (≈ 0.547 µM)
37 | Cc1ccc(Cc2ccc(Cc3cc(-c4cccnc4N)on3)s2)cc1 [Example 92, 3-(3-(5-(4-Methyl-benzyl)-thiophen-2-ylmethyl)-isoxazol-5-yl)-pyridin-2-ylamine] | 0.39 (≈ 1.08 µM) | 0.39 (≈ 1.08 µM)
38 | COCc1ccc(-c2cc(Cc3ccc(Oc4ccccc4)nc3)no2)c(N)n1 [Example 167] | 1.56 (≈ 4.02 µM) | 0.78 (≈ 2.01 µM)
39 | Nc1ccc(-c2cc(Cc3ccc(OCc4ccccc4F)cc3)no2)c(N)n1 [Example 18, 3-(3-(4-(2-Fluoro-benzyloxy)-benzyl)-isoxazol-5-yl)-pyridin-2,6-diamine] | 1.56 (≈ 4 µM) | 0.78 (≈ 2 µM)
